Laboratory results reported in US11339171B2, “MDM2 inhibitors” (Gan & Lee Pharmaceuticals, priority 2017, dated 2022).

Columns and labels:
MDM2 = target: T1, MDM2 (Homo sapiens, UniProt Q00987); assay: Inhibition test of MDM2-P53 (GST-MDM2, Biotin-P53, Anti-GST-Tb, SA-XL665); type: binding; conditions: for inhibitory effect on MDM2 compared with positive control compound HDM201: labels are Example numbers, the compounds with S-configuration are meant
T1 construct: made in house
Method in brief: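 Binding was measured by TR-FRET with GST-MDM2 at 4 nM final in PBS with 0.1% BSA, 5 mM DTT and 1 mM AEBSF. Compounds were tested as twelve-point 5-fold dilutions and incubated with the detection mix for 90 min at 25 °C with shaking before plate-reader reading and curve fitting.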

[1] = test system: human osteosarcoma cell line SJSA-1; assay: Inhibition of proliferation of human osteosarcoma cell line SJSA-1 (DAPI staining, In Cell Analyzer); conditions: for IC50: Homo sapiens, SJSA-1, 72 h, read-out: IC50 (nM), inhibitory activity on proliferation of human osteosarcoma cell line SJSA-1, SJSA-1, incubated 72 h; for inhibitory effect on human osteosarcoma cell line SJSA-1 compared with positive control compound HDM201: labels are Example numbers, the compounds with S-configuration are meant

T1 sequence (Q00987 whole entry): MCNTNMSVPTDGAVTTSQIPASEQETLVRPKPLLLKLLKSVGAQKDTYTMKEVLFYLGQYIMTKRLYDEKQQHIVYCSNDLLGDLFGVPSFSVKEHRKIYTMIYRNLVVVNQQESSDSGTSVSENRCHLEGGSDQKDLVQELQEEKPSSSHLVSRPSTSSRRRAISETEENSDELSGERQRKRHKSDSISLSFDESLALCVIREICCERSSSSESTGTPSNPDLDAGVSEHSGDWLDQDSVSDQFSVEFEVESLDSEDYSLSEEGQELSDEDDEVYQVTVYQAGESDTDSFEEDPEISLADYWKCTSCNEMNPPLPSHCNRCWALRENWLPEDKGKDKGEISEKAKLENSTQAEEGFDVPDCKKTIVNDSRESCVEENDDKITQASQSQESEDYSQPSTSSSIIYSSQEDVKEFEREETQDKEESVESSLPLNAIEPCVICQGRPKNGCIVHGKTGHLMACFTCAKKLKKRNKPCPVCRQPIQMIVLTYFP

SMILES | IC50 (MDM2) | IC50 [1] | inhibitory effect on MDM2 compared with positive control compound HDM201 (MDM2) | inhibitory effect on human osteosarcoma cell line SJSA-1 compared with positive control compound HDM201 [1]
COc1cc(C(F)(F)F)ncc1-c1nc2c(n1C(C)C)[C@@]1(C(=O)Nc3cc(Cl)ccc31)N(c1cccc(Cl)c1)C2=O [Example S-142, (S)-6-chloro-5′-(3-chlorophenyl)-3′-isopropyl-2′-(4-methoxy-6-(trifluoromethyl)pyridin-3-yl)-3′H-spiro[dihydroindole-3,4′-pyrrolo[3,4-d]imidazole]-2,6′(5′H)-dione] | 1.45 nM | 138 nM | – | –
CCOc1ncc(-c2nc3c(n2C(C)C)[C@]2(C(=O)Nc4cc(Cl)ccc42)N(c2cc(Cl)ccc2C)C3=O)c(OC)n1 [Example R-127, (R)-6-chloro-5′-(5-chloro-2-methylphenyl)-2′-(2-ethoxy-4-methoxypyrimidin-5-yl)-3′-isopropyl-3′H-spiro[dihydroindole-3,4′-pyrrolo[3,4-d]imidazole]-2,6′(5′H)-dione] | 91 nM | 1570 nM | – | –
COc1cc(N)ccc1-c1nc2c(n1C(C)C)[C@@]1(C(=O)Nc3cc(Cl)ccc31)N(c1ccc(F)c(Cl)c1)C2=O [Example S-73, (S)-2′-(4-amino-2-methoxyphenyl)-6-chloro-5′-(3-chloro-4-fluorophenyl)-3′-isopropyl-3′H-spiro[dihydroindole-3,4′-pyrrolo[3,4-d]imidazole]-2,6′(5′H)-dione] | 1.1 nM | 251 nM | – | –
COc1ccc(-c2nc3c(n2C(C)C)[C@]2(C(=O)Nc4cc(Cl)ccc42)N(c2cc(Cl)ccc2C)C3=O)c(OC)c1 [Example R-9, (R)-6-chloro-5′-(5-chloro-2-methylphenyl)-2′-(2,4-dimethoxyphenyl)-3′-isopropyl-3′H-spiro[dihydroindole-3,4′-pyrrolo[3,4-d]imidazole]-2,6′(5′H)-dione] | 332 nM | 2820 nM | – | –
Cc1ccc(Cl)cc1N1C(=O)c2nc(-c3ccccc3OC(F)(F)F)n(C(C)C)c2[C@]12C(=O)Nc1cc(Cl)ccc12 [Example R-31, (R)-6-chloro-5′-(5-chloro-2-methylphenyl)-3′-isopropyl-2′-(2-(trifluoromethoxy)phenyl)-3′H-spiro[dihydroindole-3,4′-pyrrolo[3,4-d]imidazole]-2,6′(5′H)-dione] | 1400 nM | 3580 nM | – | –
COc1cc(OC)c(-c2nc3c(n2C(C)C)[C@]2(C(=O)Nc4cc(Cl)ccc42)N(c2cc(Cl)ccc2C)C3=O)cc1F [Example R-92, (R)-6-chloro-5′-(5-chloro-2-methylphenyl)-2′-(5-fluoro-2,4-dimethoxyphenyl)-3′-isopropyl-3′H-spiro[dihydroindole-3,4′-pyrrolo[3,4-d]imidazole]-2,6′(5′H)-dione] | 378 nM | 4880 nM | – | –
COc1ncc(-c2nc3c(n2C(C)C)[C@@]2(C(=O)Nc4cc(Cl)ccc42)N(c2cc(C)cc(Cl)c2)C3=O)c(OC)n1 [Example S-51, (S)-6-chloro-5′-(3-chloro-5-methylphenyl)-2′-(2,4-dimethoxypyrimidin-5-yl)-3′-isopropyl-3′H-spiro[dihydroindole-3,4′-pyrrolo[3,4-d]imidazole]-2,6′(5′H)-dione] | 4.36 nM | 62.6 nM | – | –
COc1cc(C)ncc1-c1nc2c(n1C(C)C)[C@@]1(C(=O)Nc3cc(Cl)ccc31)N(c1cc(Cl)ccc1C)C2=O [Example S-154, (S)-6-chloro-5′-(5-chloro-2-methylphenyl)-3′-isopropyl-2′-(4-methoxy-6-methylpyridin-3-yl)-3′H-spiro[dihydroindole-3,4′-pyrrolo[3,4-d]imidazole]-2,6′(5′H)-dione] | 0.9 nM | 22 nM | – | –
COc1cc(N(C)CCO)ccc1-c1nc2c(n1C(C)C)[C@@]1(C(=O)Nc3cc(Cl)ccc31)N(c1cc(Cl)ccc1C)C2=O [Example S-162, (S)-6-chloro-5′-(5-chloro-2-methylphenyl)-2′-(4-((2-hydroxyethyl)(methyl)amino)-2-methoxyphenyl)-3′-isopropyl-3′H-spiro[dihydroindole-3,4′-pyrrolo[3,4-d]imidazole]-2,6′(5′H)-dione] | 2.07 nM | 14.9 nM | – | –
COc1ccc(C#N)cc1-c1nc2c(n1C(C)C)[C@]1(C(=O)Nc3cc(Cl)ccc31)N(c1cc(Cl)ccc1C)C2=O [Example R-13, (R)-3-(6-chloro-5′-(5-chloro-2-methylphenyl)-3′-isopropyl-2,6′-dioxo-5′,6′-dihydro-3′H-spiro[dihydroindole-3,4′-pyrrolo[3,4-d]imidazole]-2′-yl)-4-methoxybenzonitrile] | 121 nM | 1120 nM | – | –
CCc1ccc(-c2nc3c(n2C(C)C)[C@]2(C(=O)Nc4cc(Cl)ccc42)N(c2cccc(Cl)c2)C3=O)c(OC)c1 [Example R-107, (R)-6-chloro-5′-(3-chlorophenyl)-2′-(4-ethyl-2-methoxyphenyl)-3′-isopropyl-3′H-spiro[dihydroindole-3,4′-pyrrolo[3,4-d]imidazole]-2,6′(5′H)-dione] | 536 nM | 3240 nM | – | –
COc1cc(OCCF)ncc1-c1nc2c(n1C(C)C)[C@]1(C(=O)Nc3cc(Cl)ccc31)N(c1cccc(Cl)c1)C2=O [Example R-177, (R)-6-chloro-5′-(3-chlorophenyl)-2′-(6-(2-fluoroethoxy)-4-methoxypyridin-3-yl)-3′-isopropyl-3′H-spiro[dihydroindole-3,4′-pyrrolo[3,4-d]imidazole]-2,6′(5′H)-dione] | 109 nM | 4250 nM | – | –
COc1cc(OC2CC2)ncc1-c1nc2c(n1C(C)C)C1(C(=O)Nc3cc(Cl)ccc31)N(c1cc(Cl)ccc1C)C2=O (centres unmarked) [Example 110, 6-chloro-5′-(5-chloro-2-methylphenyl)-2′-(6-cyclopropoxy-4-methoxypyridin-3-yl)-3′-isopropyl-3′H-spiro[dihydroindole-3,4′-pyrrolo[3,4-d]imidazole]-2,6′(5′H)-dione] | – | – | better | better
COc1cc(-c2nc3c(n2C(C)C)[C@@]2(C(=O)Nc4cc(Cl)ccc42)N(c2cc(Cl)ccc2C)C3=O)c(OC)cn1 [Example S-40, (S)-6-chloro-5′-(5-chloro-2-methylphenyl)-2′-(2,5-dimethoxypyridin-4-yl)-3′-isopropyl-3′H-spiro[dihydroindole-3,4′-pyrrolo[3,4-d]imidazole]-2,6′(5′H)-dione] | 3.85 nM | 14.1 nM | – | –
CCOc1cc(OC)c(-c2nc3c(n2C(C)C)C2(C(=O)Nc4cc(Cl)ccc42)N(c2cc(Cl)ccc2F)C3=O)cn1 (centres unmarked) [Example 98, 6-chloro-5′-(5-chloro-2-fluorophenyl)-2′-(6-ethoxy-4-methoxypyridin-3-yl)-3′-isopropyl-3′H-spiro[dihydroindole-3,4′-pyrrolo[3,4-d]imidazole]-2,6′(5′H)-dione] | – | – | better | better
COc1ccc(-c2nc3c(n2C(C)C)[C@@]2(C(=O)Nc4cc(Cl)ccc42)N(c2cc(Cl)ccc2C)C3=O)cc1 [Example S-64, (S)-6-chloro-5′-(5-chloro-2-methylphenyl)-3′-isopropyl-2′-(4-methoxyphenyl)-3′H-spiro[dihydroindole-3,4′-pyrrolo[3,4-d]imidazole]-2,6′(5′H)-dione] | 11.8 nM | 726 nM | – | –
